Biological target: T1, KCNQ2/3 channels (Homo sapiens, UniProt O43525+O43526)
T1 construct: expressed in transfected cells; host or cells: CHO-K1
Test: Fluorescence assay using a voltage-sensitive dye
Type: cell-based
Settings: 10 μmol test substance; CHO-K1 cells expressing KCNQ2/3 channels; agonistic activity; read-out: % Stimulation [10 μmol] Average
Procedure: Fluorescence Assay Using a Voltage-Sensitive Dye
Human CHO-K1 cells expressing KCNQ2/3 channels are cultivated adherently at 37° C., 5% CO2 and 95% humidity in cell culture bottles (e.g. 80 cm^2 TC flasks, Nunc) with MEM Alpha Medium (1×, liquid, Invitrogen, #22571), 10% foetal calf serum (FCS) (Invitrogen, #10270-106, heat-inactivated) and the necessary selection antibiotics. Before being spread out for the measurements, the cells are washed with a 1×DPBS buffer without Ca^2+/Mg^2+ (e.g. Invitrogen, #14190-094) and detached from the bottom of the culture vessel by means of Accutase (PAA Laboratories, #L11-007) (incubation with Accutase for 15 min at 37° C.). The cell count then present is determined using a CASY™ cell counter (TCC model, Schärfe System) in order subsequently to apply 20,000 cells/well/100 μl of the described nutrient medium to 96-well measuring plates of the Corning™ CellBIND™ type (flat clear-bottom black polystyrene microplates, #3340). Incubation is then carried out for one hour at room temperature, without gassing or adjusting the humidity, followed by incubation for 24 hours at 37° C., 5% CO2 and 95% humidity.
The voltage-sensitive fluorescent dye from the Membrane Potential Assay Kit (Red bulk format part R8123 for FLIPR, Molecular Devices™) is prepared by dissolving the contents of a vessel of Membrane Potential Assay Kit Red Component A in 200 ml of extracellular buffer (ES buffer, 120 mM NaCl, 1 mM KCl, 10 mM HEPES, 2 mM CaCl2, 2 mM MgCl2, 10 mM glucose; pH 7.4). After removal of the nutrient medium, the cells are washed with 200 μl of ES buffer, then covered with a layer of 100 μl of the dye solution prepared above and incubated for 45 min at room temperature with exclusion of light.
The fluorescence measurements are carried out with a BMG Labtech FLUOstar™ or BMG Labtech POLARstar™ instrument (525 nm excitation, 560 nm emission, bottom-read mode). After incubation of the dye, 50 μl of the substances to be tested in the desired concentrations, or 50 μl of ES buffer for control purposes, are introduced into separate cavities of the measuring plate and incubated for 30 min at room temperature whilst being shielded from light. The fluorescence intensity of the dye is then measured for 5 min and the fluorescence value F1 of each well is thus determined at a given, constant time. 15 μl of a […] KCl solution ([…]) are then added to each well. The change in fluorescence is subsequently measured until all relevant measured values have been obtained (mainly 5-30 min). At a given time after KCl application, a fluorescence value F2 is determined, in this case at the time of the fluorescence peak.
For calculation, the fluorescence intensity F2 is compared with the fluorescence intensity F1, and the agonistic activity of the target compound on the potassium channel is determined therefrom. F2 and F1 are calculated as follows:
[formula] In order to determine whether a substance has an agonistic activity,
[formula] for example, can be compared with
[formula] of control cells.
[formula] is determined by adding to the reaction batch only the buffer solution instead of the substance to be tested, determining the value F1K of the fluorescence intensity, adding the potassium ions as described above and measuring a value F2K of the fluorescence intensity. Then F2K and F1K are calculated as follows:
[formula] A substance has an agonistic activity on the potassium channel when
[formula] is greater than
[formula] Independently of the comparison of
[formula] it is also possible to conclude that a target compound has an agonistic activity if an increase in
[formula] is to be observed as the dosage of the target compound increases. Calculations of EC50 and IC50 values are carried out with the aid of Prism 4 software (GraphPad Software™).

| activation at 10 µM [%] | SMILES |
| --- | --- |
| 33.1 | Cc1cc(C2CCc3nc(C(=O)N4CCN(Cc5ccccc5)CC4)cn3C2)ccc1F (stereo not drawn) [Compound 80, (4-Benzylpiperazin-1-yl)(6-(4-fluoro-3-methylphenyl)-5,6,7,8-tetrahydroimidazo[1,2-a]pyridin-2-yl)methanone] |
| 17.4 | O=C(NC1CC1)c1cn2c(n1)CCC(c1ccc(Oc3ccccc3)cc1)C2 (stereo not drawn) [Compound 26, N-Cyclopropyl-6-(4-phenoxyphenyl)-5,6,7,8-tetrahydroimidazo[1,2-a]pyridine-2-carboxamide] |
| 16.6 | CCc1ccc(C2CCc3nc(C(=O)NCCc4ccccc4)cn3C2)cc1 (stereo not drawn) [Compound 40, 6-(4-Ethylphenyl)-N-phenethyl-5,6,7,8-tetrahydroimidazo[1,2-a]pyridine-2-carboxamide] |
| 18.6 | CCC(C)NC(=O)c1cn2c(n1)CCC(c1ccc(Oc3ccccc3)cc1)C2 (stereo not drawn) [Compound 18, N-sec-Butyl-6-(4-phenoxyphenyl)-5,6,7,8-tetrahydroimidazo[1,2-a]pyridine-2-carboxamide] |
| 38.5 | CCc1ccc(C2CCc3nc(C(=O)N4CCC(Cc5ccccc5)CC4)cn3C2)cc1 (stereo not drawn) [Compound 11, (4-Benzylpiperidin-1-yl)(6-(4-ethylphenyl)-5,6,7,8-tetrahydroimidazo[1,2-a]pyridin-2-yl)methanone] |
| 65.1 | COc1ccc(C2CCc3nc(C(=O)N4CCC(Cc5ccccc5)CC4)cn3C2)cc1 (stereo not drawn) [Compound 76, (4-Benzylpiperidin-1-yl)(6-(4-methoxyphenyl)-5,6,7,8-tetrahydroimidazo[1,2-a]pyridin-2-yl)methanone] |
| 16.2 | CC(CCc1ccccc1)NC(=O)c1cn2c(n1)CCC(c1cccc(F)c1)C2 (stereo not drawn) [Compound 51, 6-(3-Fluorophenyl)-N-(4-phenylbutan-2-yl)-5,6,7,8-tetrahydroimidazo[1,2-a]pyridine-2-carboxamide] |
| 32.7 | O=C(c1cn2c(n1)CCC(c1ccc(OCc3ccccc3)cc1)C2)N1CCN(c2cccc(C(F)(F)F)c2)CC1 (stereo not drawn) [Compound 82, (6-(4-(Benzyloxy)phenyl)-5,6,7,8-tetrahydroimidazo[1,2-a]pyridin-2-yl)(4-(3-(trifluoromethyl)phenyl)piperazin-1-yl)methanone] |

The next lines start with the compound.

| SMILES | activation at 10 µM [%] |
| --- | --- |
| O=C(c1cn2c(n1)CCC(c1cccc(C(F)(F)F)c1)C2)N1CCN(c2ccccc2F)CC1 (stereo not drawn) [Compound 32, (4-(2-Fluorophenyl)piperazin-1-yl)(6-(3-(trifluoromethyl)phenyl)-5,6,7,8-tetrahydroimidazo[1,2-a]pyridin-2-yl)methanone] | 21.2 |
| COc1ccc(C2CCc3nc(C(=O)N4CCN(c5cccc(C(F)(F)F)c5)CC4)cn3C2)cc1 (stereo not drawn) [Compound 69, (6-(4-Methoxyphenyl)-5,6,7,8-tetrahydroimidazo[1,2-a]pyridin-2-yl)(4-(3-(trifluoromethyl)phenyl)piperazin-1-yl)methanone] | 30.1 |
| Cc1cccc(N2CCN(C(=O)c3cn4c(n3)CCC(c3ccc(F)c(C)c3)C4)CC2)c1 (stereo not drawn) [Compound 65, (6-(4-Fluoro-3-methylphenyl)-5,6,7,8-tetrahydroimidazo[1,2-a]pyridin-2-yl)(4-(3-methylphenyl)piperazin-1-yl)methanone] | 132 |
| Cc1cc(C2CCc3nc(C(=O)N(C)C(C)CCc4cccc(C(F)(F)F)c4)cn3C2)ccc1F (stereo not drawn) [Compound 87, 6-(4-Fluoro-3-methylphenyl)-N-methyl-N-(4-(3-(trifluoromethyl)phenyl)butan-2-yl)-5,6,7,8-tetrahydroimidazo[1,2-a]pyridine-2-carboxamide] | 48.4 |
| CC1(C)CC2CC(C)(CN2C(=O)c2cn3c(n2)CCC(c2ccc(F)cc2)C3)C1 (stereo not drawn) [Compound 38, (6-(4-Fluorophenyl)-5,6,7,8-tetrahydroimidazo[1,2-a]pyridin-2-yl)(1,3,3-trimethyl-6-azabicyclo[3.2.1]octan-6-yl)methanone] | 25.9 |
| COc1ccc(C2CCc3nc(C(=O)N4CCCC4)cn3C2)c(OC)c1 (stereo not drawn) [Compound 33, (6-(2,4-Dimethoxyphenyl)-5,6,7,8-tetrahydroimidazo[1,2-a]pyridin-2-yl)(pyrrolidin-1-yl)methanone] | 24.5 |
| O=C(c1cn2c(n1)CCC(c1cccc(F)c1)C2)N1CCN(c2cccc(C(F)(F)F)c2)CC1 (stereo not drawn) [Compound 48, (6-(3-Fluorophenyl)-5,6,7,8-tetrahydroimidazo[1,2-a]pyridin-2-yl)(4-(3-(trifluoromethyl)phenyl)piperazin-1-yl)methanone] | 33 |
| COc1ccc(OC)c(C2CCc3nc(C(=O)N4CC5(C)CC4CC(C)(C)C5)cn3C2)c1 (stereo not drawn) [Compound 12, (6-(2,5-Dimethoxyphenyl)-5,6,7,8-tetrahydroimidazo[1,2-a]pyridin-2-yl)(1,3,3-trimethyl-6-azabicyclo[3.2.1]octan-6-yl)methanone] | 51.8 |
| COc1ccccc1N1CCN(C(=O)c2cn3c(n2)CCC(c2cc(C)c(OC)c(C)c2)C3)CC1 (stereo not drawn) [Compound 10, (6-(4-Methoxy-3,5-dimethylphenyl)-5,6,7,8-tetrahydroimidazo[1,2-a]pyridin-2-yl)(4-(2-methoxyphenyl)piperazin-1-yl)methanone] | 15.7 |

Same assay, conditions: CHO-K1 cells expressing KCNQ2/3 channels; agonistic activity

| EC50 [µM] | SMILES |
| --- | --- |
| 9.71 | Cc1cc(C2CCc3nc(C(=O)N4CCC(Cc5ccccc5)CC4)cn3C2)ccc1F (stereo not drawn) [Compound 57, (4-Benzylpiperidin-1-yl)(6-(4-fluoro-3-methylphenyl)-5,6,7,8-tetrahydroimidazo[1,2-a]pyridin-2-yl)methanone] |
| 8.4 | CC1CCN(C(=O)c2cn3c(n2)CCC(c2ccc(Oc4ccccc4)cc2)C3)CC1 (stereo not drawn) [Compound 21, (4-Methylpiperidin-1-yl)(6-(4-phenoxyphenyl)-5,6,7,8-tetrahydroimidazo[1,2-a]pyridin-2-yl)methanone] |

Further lines, the compound ahead of its results:

| SMILES | EC50 [µM] |
| --- | --- |
| COc1c(C)cc(C2CCc3nc(C(=O)N4CCC(Cc5ccccc5)CC4)cn3C2)cc1C (stereo not drawn) [Compound 55, (4-Benzylpiperidin-1-yl)(6-(4-methoxy-3,5-dimethylphenyl)-5,6,7,8-tetrahydroimidazo-[1,2-a]pyridin-2-yl)methanone] | 5.42 |
| COc1ccc(C2CCc3nc(C(=O)N4CCN(c5cccc(C(F)(F)F)c5)CC4)cn3C2)c(OC)c1 (stereo not drawn) [Compound 46, (6-(2,4-Dimethoxyphenyl)-5,6,7,8-tetrahydroimidazo[1,2-a]pyridin-2-yl)(4-(3-(trifluoromethyl)phenyl)piperazin-1-yl)methanone] | 3.98 |
| COc1c(C)cc(C2CCc3nc(C(=O)N4CC5(C)CC4CC(C)(C)C5)cn3C2)cc1C (stereo not drawn) [Compound 56, (6-(4-Methoxy-3,5-dimethylphenyl)-5,6,7,8-tetrahydroimidazo[1,2-a]pyridin-2-yl)(1,3,3-trimethyl-6-azabicyclo[3.2.1]octan-6-yl)methanone] | 11.3 |
| O=C(c1cn2c(n1)CCC(c1ccccc1)C2)N1CCN(c2cccc(C(F)(F)F)c2)CC1 (stereo not drawn) [Compound 53, (6-Phenyl-5,6,7,8-tetrahydroimidazo[1,2-a]pyridin-2-yl)(4-(3-(trifluoromethyl)phenyl)piperazin-1-yl)methanone] | 8.34 |
| COc1c(C)cc(C2CCc3nc(C(=O)N4CCN(c5ccccc5F)CC4)cn3C2)cc1C (stereo not drawn) [Compound 6, (4-(2-Fluorophenyl)piperazin-1-yl)(6-(4-methoxy-3,5-dimethylphenyl)-5,6,7,8-tetrahydroimidazo[1,2-a]pyridin-2-yl)methanone] | 7.4 |
